Laboratory results published in patent US6692695B1, “Industrial scale barrier technology for preservation of sensitive biological materials” (Quadrant Drug Delivery Limited, priority 1999, dated 2004).
One block for each compound: values may come before it.

Experiments:
[1] = Potency of Amphotericin after foam drying and storage
Protocol: (8) Freeze-dried samples of Amphotericin B were rehydrated with 5 ml 40 wt % sucrose per vial. Then the solutions were transferred into 50 ml sterilized glass vials for future preservation by drying. Before drying, the vials were covered with gray butyl slotted rubber stoppers. The vials were dried inside a vacuum chamber. The vials were placed on the surface of a stainless steel shelf inside the chamber. The shelf temperature was controlled by circulating ethylene glycol/water antifreeze at a controlled temperature inside the shelf. Before the vacuum was applied the shelf temperature was decreased to 5° C. The hydrostatic pressure inside the chamber was decreased to 0.5 Torr. Under such conditions the suspension boiled for 30 min. The temperature of the shelf was then slowly (during 30 min) increased to 25° C. Visually, stable dry foams were formed inside the vials under these experimental conditions within 3 hours. After an additional 12 hours of drying at room temperature, the chamber was filled with the dry N2 gas and the rubber stoppers in a portion of the vials were pushed down. The vials were removed from the chamber and subsequently sealed with aluminum crimped seal. The samples were assayed immediately after drying and after 30 days of storage at 27.5° and 40° C. The results are shown in Table 1, together with the results obtained in the next experiment.
Another set of freeze-dried samples of Amphotericin B was rehydrated with 5 ml 40 wt % sucrose per vial. The solutions were then transferred into sterilized glass vials for future preservation by drying similar to that described above with additional drying at 45° C. for additional 24 hours. After that, the chamber was filled again with the dry N2 gas, the rubber stoppers were pushed down and the vials were sealed. The samples were assayed right after drying and after 30 day of storage at 27.5° and 40° C.

[2] = Glass transition temperature of foam-dried sucrose particles; format: physicochemical
Protocol: (1) In the first test, the equipment set-up consisted of a 4.5 inch internal diameter glass tube connected to a standard Virtis SL600 Unitop condenser section and heated via two laboratory style hot plates from Coming. The opposite end of the glass tube was closed. A 200 ml solution of sucrose 50% (w/w) in de-ionized water was introduced to a 2 L PET beverage bottle, commonly used for soft drinks. This would be considered to be a semi-rigid container. The bottle was placed in the tube and the sucrose solution was preserved by foam formation. After mechanically stable foam was formed, the bottle containing the foam was held overnight at 0.3 Torr and 25° C. The next morning the vacuum was broken with air. Total process time was 23 hours. Immediately following tube disassembly, the bottle was removed from the tube and purged with dry nitrogen for approximately one minute. The bottle was capped with the accompanying plastic screw top. The foam appeared to completely fill the bottle. […] Next the bottle was struck against the laboratory counter about 8-10 times with light-moderate force. All of the foam inside broke apart into discreet particles with the visual and flow characteristics of sand. A small amount of material remained adhering to the bottle interior. The glass transition temperature of the coarse particulate material was 18° C.
(2) In a second test, the glass tube used in the first test was replaced with a jacketed glass tube. The jacket was filled with water and connected to a recirculating heater bath. The bottle used previously was replaced with a 1-gallon capacity polyethylene plastic storage bag, commonly available in supermarkets. This would be considered to be a flexible container. The bag was taped in place to a plastic holder to keep the bag open. The bag was filled with 150 ml of 50% (w/w) sucrose in de-ionized water. Primary foam drying was essentially completed 90 minutes later and the heating source switched to hot plates. Conditions at that point were 31° C. and 0.1 5 Torr. The foam was then held overnight. […]

[3] = Urokinase activity after foam drying and storage
Protocol: (7) Freeze-dried samples of Urokinase were rehydrated with 2 ml of 40 wt % sucrose. The solutions were then transferred to 20 ml sterilized glass vials for future preservation by drying. Before drying, the vials were covered with gray slotted rubber stoppers. The vials were dried inside a vacuum chamber. The vials were sitting on the surface of a stainless steel shelf inside the chamber. The shelf temperature was controlled by circulating ethylene glycol/water antifreeze at a controlled temperature inside the shelf. Before the vacuum was applied the shelf temperature was decreased to 5° C. Then the hydrostatic pressure inside the chamber was decreased to 0.5 Torr. Under such conditions, the suspension boiled for 30 min. […] Visually, under these experimental conditions, stable dry foams were formed inside the vials within 3 hours. After an additional 12 hours of drying at room temperature, the temperature was increased to 45° C. and maintained for an additional 24 hours. After that the chamber was filled with dry N2 gas, the rubber stoppers were pushed down and the vials were sealed with aluminum crimp seals.
The samples were assayed immediately after drying and after 30 days of storage at 40° C. After drying the Urokinase, activity was 93% of the initial activity. […]

- Potency of Amphotericin (%) ([1]; Control): 126%
- Potency of Amphotericin (%) After 30 days at 27.5° C. ([1]; Td = 25° C.): 114%
- Potency of Amphotericin (%) After 30 days at 40° C. ([1]; Td = 25° C.): 95%
- Potency of Amphotericin (%) After drying ([1]; Td = 25° C.): 108%
- Potency of Amphotericin (%) After 30 days at 27.5° C. ([1]; Td = 45° C.): 102%
- Potency of Amphotericin (%) After 30 days at 40° C. ([1]; Td = 45° C.): 104%
- Potency of Amphotericin (%) After drying ([1]; Td = 45° C.): 103%
Compound: C[C@@H]1[C@H](O)[C@@H](C)/C=C/C=C/C=C/C=C/C=C/C=C/C=C/[C@H](O[C@@H]2O[C@H](C)[C@@H](O)[C@H](N)[C@@H]2O)C[C@@H]2O[C@](O)(C[C@@H](O)C[C@@H](O)[C@H](O)CC[C@@H](O)C[C@@H](O)CC(=O)O[C@H]1C)C[C@H](O)[C@H]2C(=O)O [Amphotericin, Amphotericin B]

- glass transition temperature ([2]; 150 ml 50% (w/w) in 1-gallon polyethylene bag, 31° C., total 71 hours): 18.33 °C
- glass transition temperature ([2]; 200 ml 50% (w/w) in 2 L PET bottle, held overnight at 0.3 Torr and 25° C., total 23 hours): 18 °C
- glass transition temperature ([2]; 300 ml 50% (w/w) in larger bag, up to 55° C. and 0.2 Torr, total 23.5 hours): 33.3 °C
Compound: OC[C@H]1O[C@@](CO)(O[C@H]2O[C@H](CO)[C@@H](O)[C@H](O)[C@H]2O)[C@@H](O)[C@@H]1O [sucrose]

Compound: Urokinase
- activity, % of the initial activity ([3]; after 30 days of storage at 40° C.): 90%
- activity, % of the initial activity ([3]; after drying (40 wt % sucrose, up to 45° C.)): 93%
